Source: patent publication US20260041094A1, “Compositions Comprising an Antimicrobial Boosting Agent” (Symrise AG, priority 2022, published 2026)

Columns and labels:
Test in all cases: Minimum Inhibitory Concentration (MIC) test, growth inhibition in 96 well plates via optical density
Assay type in all cases: cell-based
Candida albicans = conditions: lowest concentration with complete growth inhibition, C. albicans; for MIC: Candida albicans, read-out: MIC in ppm Candida albicans
Procedure: (§1) The Minimum Inhibitory Concentration (MIC) test is a test on growth inhibition. The estimation of MICs is executed in 96 well plates. Through the comparison of bacterial growth with positive and negative controls via optical density (OD), different concentrations of given test substances are evaluated.
(§2) Bacteria were cultivated under adjusted conditions based on information of the German Collection of Microorganisms and Cell Cultures (DSMZ) and stored in 10% or 50% glycerol prior to use. Afterwards, the following method was applied: Growth medium (according to microorganism) was added to each well of the microplate. Then, test-substances solved in DMSO, and strain specific benchmarks were added. Additionally, […] (water controls only with medium) and solvent controls (DMSO controls only with medium) were performed. Finally, the microorganisms were added in a concentration of 1 to 6×10^6 CFU/ml (CFU=colony forming units). The incubation of the microplates was carried out at appropriate conditions.
(§3) According to the resulting growth, substance concentrations are labelled either as inhibiting or not and MIC is defined as the lowest concentration where a complete growth inhibition is visible. Experiments at concentration limits (highest concentration labelled as growth and lowest concentration labelled as inhibiting) are performed at least twice.
(§4) Tested concentrations were adjusted to performance of test substance, but in general: 5,000 ppm steps between 50,000 ppm and 10,000 ppm, and 2500 ppm steps below 10,000 ppm, finishing with 1000 ppm. To enhance resolution of the approach, additional intermediate steps were included in individual cases. […] For ethylhexylglycerin and 1,2-pentanediol, pure substance without DMSO was tested.
(§5) To verify that the tested combinations act synergistically against microorganisms, corresponding experiments were conducted with Staphylococcus aureus, Candida albicans, Aspergillus brasiliensis, Pseudomonas aeruginosa and Escherichia coli. The synergistic activities of MAA-1 and different antimicrobial compounds in a mixture of 50% and 50% were determined by measuring the MIC of the mixture.
(§6) In order to calculate the synergy index with MIC values, the Kull equation was used as follows:
(§7) [formula] • wherein • SI is the Synergy Index according to Kull • MICA is the MIC value for Substance A • MICB is the MIC value for Substance B • MICmixture is the MIC value for the mixture of substances A and B • PA is the proportion of the substance A in the mixture • PB is the proportion of the substance B in the mixture
(§8) A Synergy Index (SI) with a value lower than 1 indicates a synergistic effect of the mixture that has been tested. Values higher than 1 indicate the absence of a synergistic effect.
(§9) For mixtures for which no MIC value has been determined, the calculation of an SI is not applicable (marked as n.a. in the following tables).

Pseudomonas aeruginosa = conditions: lowest concentration with complete growth inhibition, P. aeruginosa; for MIC: Pseudomonas aeruginosa, read-out: MIC in ppm Pseudomonas aeruginosa
Procedure: as §1, §2, §3, §4, §5, §6, §7, §8, §9

Aspergillus brasiliensis = conditions: lowest concentration with complete growth inhibition, A. brasiliensis; for MIC: Aspergillus brasiliensis, read-out: MIC in ppm Aspergillus brasiliensis
Procedure: as §1, §2, §3, §4, §5, §6, §7, §8, §9

Staphylococcus aureus = conditions: lowest concentration with complete growth inhibition, S. aureus; for MIC: Staphylococcus aureus, read-out: MIC in ppm Staphylococcus aureus
Procedure: as §1, §2, §3, §4, §5, §6, §7, §8, §9

Escherichia coli = conditions: lowest concentration with complete growth inhibition, E. coli; for MIC: Escherichia coli, read-out: MIC in ppm Escherichia coli
Procedure: as §1, §2, §3, §4, §5, §6, §7, §8, §9

SMILES | MIC (Candida albicans) [mg/mL] | MIC (Pseudomonas aeruginosa) [mg/mL] | MIC (Aspergillus brasiliensis) [mg/mL] | MIC (Staphylococcus aureus) [mg/mL] | MIC (Escherichia coli) [mg/mL] | MIC in ppm Candida albicans (Candida albicans) | MIC in ppm Pseudomonas aeruginosa (Pseudomonas aeruginosa) | MIC in ppm Aspergillus brasiliensis (Aspergillus brasiliensis) | MIC in ppm Staphylococcus aureus (Staphylococcus aureus) | MIC in ppm Escherichia coli (Escherichia coli)
CCCC(O)CO (stereo not drawn) [1,2-Pentanediol] | 12.5 | 30 | 17.5 | 35 | 15 | – | – | – | – | –
CCCCC(CC)COCC(O)CO (stereo not drawn) [Ethylhexylglycerin] | – | – | – | – | – | 1,000 ppm | 50,000 ppm | 1,000 ppm | 1,000 ppm | 2,500 ppm
CC(=O)c1ccc(O)cc1 [4-Hydroxy-acetophenone, 4-Hydroxyacetophenone] | – | – | – | – | – | 6,000 ppm | 4,000 ppm | 2,500 ppm | 5,000 ppm | 2,500 ppm
CCOC(=O)CNC1=C/C(=N/c2ccccc2)CC(C)(C)C1 [MAA-1] | 7.5 | > 25 | 20 | 2.5 | 2.5 | – | – | – | – | –

The next lines start with the values.

MIC (Candida albicans) [mg/mL] | MIC (Pseudomonas aeruginosa) [mg/mL] | MIC (Aspergillus brasiliensis) [mg/mL] | MIC (Staphylococcus aureus) [mg/mL] | MIC (Escherichia coli) [mg/mL] | MIC in ppm Candida albicans (Candida albicans) | MIC in ppm Pseudomonas aeruginosa (Pseudomonas aeruginosa) | MIC in ppm Aspergillus brasiliensis (Aspergillus brasiliensis) | MIC in ppm Staphylococcus aureus (Staphylococcus aureus) | MIC in ppm Escherichia coli (Escherichia coli) | SMILES
25 | > 30 | > 30 | 25 | > 25 | – | – | – | – | – | COc1ccc(/N=C2\CC(C)(C)CC3=C2SCC(C(=O)O)N3)cc1OC (stereo not drawn) [MAA-13, 8-((3,4-dimethoyxphenyl)imino)-6,6-dimethyl-3,4,5,6,7,8-hexahydro-2-H-benzol[b][1,4]thiazine-3-carboxylic acid]
> 25 | > 30 | > 30 | > 25 | 15 | – | – | – | – | – | CC1(C)CC(NCC(=O)O)=C/C(=N/c2ccccc2)C1 [MAA-20, 2-[(5,5-dimethyl-3-phenylimino-cyclohexen-1-yl)amino]acetic acid]
